In patent US20180201609A1 (AURIGENE DISCOVERY TECHNOLOGIES LIMITED, priority 2015, published 2018):
Structures can show the parent of a compound that is named as a salt.

Target: T1, IRAK-4 enzyme (Homo sapiens, UniProt Q9NWZ3)
T1 construct: purchased Millipore, USA
T1 sequence (Q9NWZ3 1-460): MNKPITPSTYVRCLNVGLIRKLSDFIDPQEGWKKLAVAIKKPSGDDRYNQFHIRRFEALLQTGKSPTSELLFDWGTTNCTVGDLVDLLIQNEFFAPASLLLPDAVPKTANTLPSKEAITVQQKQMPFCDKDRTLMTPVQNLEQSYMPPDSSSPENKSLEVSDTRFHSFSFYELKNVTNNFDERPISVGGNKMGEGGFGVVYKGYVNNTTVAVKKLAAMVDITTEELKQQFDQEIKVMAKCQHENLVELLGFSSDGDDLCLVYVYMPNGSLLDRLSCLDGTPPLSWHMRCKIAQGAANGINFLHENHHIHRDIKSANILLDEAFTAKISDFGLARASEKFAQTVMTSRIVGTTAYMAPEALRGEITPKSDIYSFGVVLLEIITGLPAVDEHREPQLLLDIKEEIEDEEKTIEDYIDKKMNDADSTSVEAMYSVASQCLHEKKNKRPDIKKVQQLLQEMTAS
Assay: IRAK-4 Biochemical Assay (TR-FRET)
Settings: recombinant IRAK-4 kinase, 20 μM ATP; for inhibition at 0.1 µM: 0.1 μM compound; for inhibition at 1 µM: 1 μM compound

Cn1cc2cc(NC(=O)c3cc(N4CCC(O)C4)ccn3)c(C3CC3)cc2n1 (stereo not drawn) [Example 71, N-(6-cyclopropyl-2-methyl-2H-indazol-5-yl)-4-(3-hydroxypyrrolidin-1-yl)picolinamide hydrochloride]
inhibition at 0.1 µM: 67%
inhibition at 1 µM: 95%

Cn1cc2cc(NC(=O)c3ccnc(N4CCC(O)C4)n3)c(C3CC3)cc2n1 (stereo not drawn) [Example 72, N-(6-cyclopropyl-2-methyl-2H-indazol-5-yl)-2-(3-hydroxypyrrolidin-1-yl)pyrimidine-4-carboxamide]
inhibition at 0.1 µM: 29%
inhibition at 1 µM: 86%

Cn1cc2cc(NC(=O)c3ccc(N4CCC(O)C4)cn3)c(N3CCCCC3)cc2n1 (stereo not drawn) [Example 73, 5-(3-hydroxypyrrolidin-1-yl)-N-(2-methyl-6-(piperidin-1-yl)-2H-indazol-5-yl)picolinamide]
inhibition at 0.1 µM: 10%
inhibition at 1 µM: 51%
